Experimental data taken from PubChem BioAssay AID2060490 (Molecular Pharmacology Branch, DTP, NCI, 2025).

Tested on: 885512-296-R-J2-PDC complex spheroid viability
Assay: Anticancer human tumor 885512-296-R-J2-PDC patient-derived breast carcinoma cell line growth inhibition [GQUAD]
Settings: for IC50: curve of first compound; for viability, T/C: stronger effect = lower value
Summary of the method: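 Viability of tumor cells grown as complex spheroids with endothelial and stromal cells, exposed to drug combinations. Top concentration at or near clinical Cmax (else 10 microM), diluted in half-log increments.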

[1] = second compound 0.0316 µM, first compound 0.0316 µM
[2] = second compound 0.0316 µM, first compound 0.1 µM
[3] = second compound 0.0316 µM, first compound 0.316 µM
[4] = second compound 0.0316 µM, first compound 1 µM
[5] = second compound 0.0316 µM, first compound 3.16 µM
[6] = second compound 0.0316 µM, first compound 10 µM
[7] = second compound 0.1 µM, first compound 0.0316 µM
[8] = second compound 0.1 µM, first compound 0.1 µM
[9] = second compound 0.1 µM, first compound 0.316 µM
[10] = second compound 0.1 µM, first compound 1 µM
[11] = second compound 0.1 µM, first compound 3.16 µM
[12] = second compound 0.1 µM, first compound 10 µM
[13] = second compound 0.316 µM, first compound 0.0316 µM
[14] = second compound 0.316 µM, first compound 0.1 µM
[15] = second compound 0.316 µM, first compound 0.316 µM
[16] = second compound 0.316 µM, first compound 1 µM
[17] = second compound 0.316 µM, first compound 3.16 µM
[18] = second compound 0.316 µM, first compound 10 µM
[19] = second compound 1 µM, first compound 0.0316 µM
[20] = second compound 1 µM, first compound 0.1 µM
[21] = second compound 1 µM, first compound 0.316 µM
[22] = second compound 1 µM, first compound 1 µM
[23] = second compound 1 µM, first compound 3.16 µM
[24] = second compound 1 µM, first compound 10 µM
[25] = second compound 3.16 µM, first compound 0.0316 µM
[26] = second compound 3.16 µM, first compound 0.1 µM
[27] = second compound 3.16 µM, first compound 0.316 µM
[28] = second compound 3.16 µM, first compound 1 µM
[29] = second compound 3.16 µM, first compound 3.16 µM
[30] = second compound 3.16 µM, first compound 10 µM
[31] = second compound 10 µM, first compound 0.0316 µM
[32] = second compound 10 µM, first compound 0.1 µM
[33] = second compound 10 µM, first compound 0.316 µM
[34] = second compound 10 µM, first compound 1 µM
[35] = second compound 10 µM, first compound 3.16 µM
[36] = second compound 10 µM, first compound 10 µM
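Note: spheroids exposed to the compounds for one week.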
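Throughout, for viability, T/C: percent of tumor spheroid viability relative to DMSO vehicle control wells.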

Nc1ccn(C2OC(CO)C(O)C2(F)F)c(=O)n1 (stereo not drawn) + CN(C)c1ccc(Nc2c3ccc(NC(=O)CCN4CCCC4)cc3nc3cc(NC(=O)CCN4CCCC4)ccc23)cc1
IC50 (second compound 0.0316 µM): < 0.0316 µM
IC50 (second compound 0.1 µM): < 0.0316 µM
IC50 (second compound 0.316 µM): < 0.0316 µM
IC50 (second compound 1 µM): < 0.0316 µM
IC50 (second compound 3.16 µM): < 0.0316 µM
IC50 (second compound 10 µM): < 0.0316 µM
viability, T/C [1]: 9.1%
viability, T/C [2]: 2.14%
viability, T/C [3]: 2.5%
viability, T/C [4]: 3.16%
viability, T/C [5]: 3.03%
viability, T/C [6]: 2.58%
viability, T/C [7]: 7.88%
viability, T/C [8]: 2.78%
viability, T/C [9]: 2.67%
viability, T/C [10]: 2.57%
viability, T/C [11]: 2.19%
viability, T/C [12]: 2.48%
viability, T/C [13]: 6.92%
viability, T/C [14]: 2.8%
viability, T/C [15]: 3.02%
viability, T/C [16]: 2.49%
viability, T/C [17]: 2.88%
viability, T/C [18]: 2.91%
viability, T/C [19]: 7.45%
viability, T/C [20]: 2.12%
viability, T/C [21]: 2.71%
viability, T/C [22]: 2.43%
viability, T/C [23]: 2.45%
viability, T/C [24]: 2.25%
viability, T/C [25]: 8.52%
viability, T/C [26]: 3.21%
viability, T/C [27]: 2.06%
viability, T/C [28]: 2.2%
viability, T/C [29]: 2.24%
viability, T/C [30]: 1.81%
viability, T/C [31]: 7.17%
viability, T/C [32]: 2.02%
viability, T/C [33]: 2.12%
viability, T/C [34]: 1.7%
viability, T/C [35]: 1.53%
viability, T/C [36]: 1.39%

CCCS(=O)(=O)Nc1ccc(F)c(C(=O)c2c[nH]c3ncc(-c4ccc(Cl)cc4)cc23)c1F + CN(C)c1ccc(Nc2c3ccc(NC(=O)CCN4CCCC4)cc3nc3cc(NC(=O)CCN4CCCC4)ccc23)cc1
IC50 (second compound 0.0316 µM): 8.18 µM
IC50 (second compound 0.1 µM): 7.89 µM
IC50 (second compound 0.316 µM): 8.45 µM
IC50 (second compound 1 µM): 6.7 µM
IC50 (second compound 3.16 µM): 3.75 µM
IC50 (second compound 10 µM): < 0.0316 µM
viability, T/C [1]: 105%
viability, T/C [2]: 90%
viability, T/C [3]: 109%
viability, T/C [4]: 104%
viability, T/C [5]: 106%
viability, T/C [6]: 38.9%
viability, T/C [7]: 101%
viability, T/C [8]: 119%
viability, T/C [9]: 124%
viability, T/C [10]: 117%
viability, T/C [11]: 89%
viability, T/C [12]: 39.8%
viability, T/C [13]: 118%
viability, T/C [14]: 102%
viability, T/C [15]: 111%
viability, T/C [16]: 104%
viability, T/C [17]: 104%
viability, T/C [18]: 40.7%
viability, T/C [19]: 95%
viability, T/C [20]: 102%
viability, T/C [21]: 103%
viability, T/C [22]: 94.1%
viability, T/C [23]: 119%
viability, T/C [24]: 21.9%
viability, T/C [25]: 117%
viability, T/C [26]: 104%
viability, T/C [27]: 126%
viability, T/C [28]: 111%
viability, T/C [29]: 57.6%
viability, T/C [30]: 6.03%
viability, T/C [31]: 17.6%
viability, T/C [32]: 16.4%
viability, T/C [33]: 15.7%
viability, T/C [34]: 14.2%
viability, T/C [35]: 8.35%
viability, T/C [36]: 1.3%

CC[C@@]1(O)C(=O)OCc2c1cc1n(c2=O)Cc2cc3c(CN(C)C)c(O)ccc3nc2-1 + CN(C)c1ccc(Nc2c3ccc(NC(=O)CCN4CCCC4)cc3nc3cc(NC(=O)CCN4CCCC4)ccc23)cc1
IC50 (second compound 0.0316 µM): 0.0195 µM
IC50 (second compound 0.1 µM): 0.022 µM
IC50 (second compound 0.316 µM): 0.0202 µM
IC50 (second compound 1 µM): 0.0202 µM
IC50 (second compound 3.16 µM): 0.0198 µM
IC50 (second compound 10 µM): < 0.000999 µM
viability, T/C (second compound 0.0316 µM, first compound 0.000999 µM): 105%
viability, T/C (second compound 0.0316 µM, first compound 0.00316 µM): 93.1%
viability, T/C (second compound 0.0316 µM, first compound 0.00999 µM): 80.7%
viability, T/C [1]: 28.4%
viability, T/C (second compound 0.0316 µM, first compound 0.0999 µM): 6.28%
viability, T/C [3]: 4.08%
viability, T/C (second compound 0.1 µM, first compound 0.000999 µM): 102%
viability, T/C (second compound 0.1 µM, first compound 0.00316 µM): 95.5%
viability, T/C (second compound 0.1 µM, first compound 0.00999 µM): 83.5%
viability, T/C [7]: 34.9%
viability, T/C (second compound 0.1 µM, first compound 0.0999 µM): 6.9%
viability, T/C [9]: 3.94%
viability, T/C (second compound 0.316 µM, first compound 0.000999 µM): 95.9%
viability, T/C (second compound 0.316 µM, first compound 0.00316 µM): 103%
viability, T/C (second compound 0.316 µM, first compound 0.00999 µM): 80.7%
viability, T/C [13]: 30.2%
viability, T/C (second compound 0.316 µM, first compound 0.0999 µM): 8.66%
viability, T/C [15]: 5.73%
viability, T/C (second compound 1 µM, first compound 0.000999 µM): 99%
viability, T/C (second compound 1 µM, first compound 0.00316 µM): 89.1%
viability, T/C (second compound 1 µM, first compound 0.00999 µM): 78.9%
viability, T/C [19]: 32.2%
viability, T/C (second compound 1 µM, first compound 0.0999 µM): 8.09%
viability, T/C [21]: 7.14%
viability, T/C (second compound 3.16 µM, first compound 0.000999 µM): 85.8%
viability, T/C (second compound 3.16 µM, first compound 0.00316 µM): 78.5%
viability, T/C (second compound 3.16 µM, first compound 0.00999 µM): 82.5%
viability, T/C [25]: 28.2%
viability, T/C (second compound 3.16 µM, first compound 0.0999 µM): 11.3%
viability, T/C [27]: 5.81%
viability, T/C (second compound 10 µM, first compound 0.000999 µM): 20.1%
viability, T/C (second compound 10 µM, first compound 0.00316 µM): 23.4%
viability, T/C (second compound 10 µM, first compound 0.00999 µM): 18.2%
viability, T/C [31]: 10.8%
viability, T/C (second compound 10 µM, first compound 0.0999 µM): 7.67%
viability, T/C [33]: 5.22%

CC(C)n1c(=O)n(C)c2cnc3cc(F)c(-c4ccc(OCCCN5CCCCC5)nc4)cc3c21 + CN(C)c1ccc(Nc2c3ccc(NC(=O)CCN4CCCC4)cc3nc3cc(NC(=O)CCN4CCCC4)ccc23)cc1
IC50 (second compound 0.0316 µM): > 10 µM
IC50 (second compound 0.1 µM): > 10 µM
IC50 (second compound 0.316 µM): > 10 µM
IC50 (second compound 1 µM): > 10 µM
IC50 (second compound 3.16 µM): 0.654 µM
IC50 (second compound 10 µM): < 0.0316 µM
viability, T/C [1]: 89.9%
viability, T/C [2]: 81.4%
viability, T/C [3]: 97.1%
viability, T/C [4]: 84.5%
viability, T/C [5]: 118%
viability, T/C [6]: 98.2%
viability, T/C [7]: 81.3%
viability, T/C [8]: 87.5%
viability, T/C [9]: 82.2%
viability, T/C [10]: 95.7%
viability, T/C [11]: 108%
viability, T/C [12]: 72.4%
viability, T/C [13]: 83.4%
viability, T/C [14]: 69.8%
viability, T/C [15]: 84.3%
viability, T/C [16]: 92.9%
viability, T/C [17]: 118%
viability, T/C [18]: 78.6%
viability, T/C [19]: 84%
viability, T/C [20]: 86.3%
viability, T/C [21]: 94.5%
viability, T/C [22]: 87.9%
viability, T/C [23]: 94.8%
viability, T/C [24]: 54.3%
viability, T/C [25]: 75.3%
viability, T/C [26]: 70.4%
viability, T/C [27]: 52%
viability, T/C [28]: 47.5%
viability, T/C [29]: 35.4%
viability, T/C [30]: 18.8%
viability, T/C [31]: 16.4%
viability, T/C [32]: 14.6%
viability, T/C [33]: 13.3%
viability, T/C [34]: 10.1%
viability, T/C [35]: 9.73%
viability, T/C [36]: 2.68%
